Reference: ChEMBL document CHEMBL5465560, “Selectivity Literature for EUbOPEN Chemogenomic Library” (2024)

Columns and labels:
[1] = biological target: Cyclin-dependent kinase 5 (Homo sapiens, UniProt Q00535); experiment: Selectivity interaction (KinomeScan (DiscoverX)) EUB0000092b CDK5; settings: at 10 µM
[2] = biological target: Histone-lysine N-methyltransferase 2A (Homo sapiens) (UniProt Q03164); experiment: Selectivity interaction (Human bromodomain panel (DSF assay)) EUB0000233b MLL
[3] = biological target: Mitogen-activated protein kinase 3 (Homo sapiens, UniProt P27361); experiment: Selectivity interaction (Kinase panel (KiNativ target engagement assay in Jurkat cells)) EUB0001635a MAPK3; format: cell-based; settings: Selectivity number of off-targets 0.0, Selectivity number of targets 233.0, Source Knowledge https://www.sciencedirect.com/science/article/pii/S2451945619300674?via%3Dihub, at 1 µM
[4] = biological target: T1, Ephrin type-B receptor 2 (Homo sapiens) (UniProt P29323); experiment: Selectivity interaction (KinomeScan (DiscoverX)) EUB0000666a EPHB2; settings: at 10 µM
T1 sequence (whole entry): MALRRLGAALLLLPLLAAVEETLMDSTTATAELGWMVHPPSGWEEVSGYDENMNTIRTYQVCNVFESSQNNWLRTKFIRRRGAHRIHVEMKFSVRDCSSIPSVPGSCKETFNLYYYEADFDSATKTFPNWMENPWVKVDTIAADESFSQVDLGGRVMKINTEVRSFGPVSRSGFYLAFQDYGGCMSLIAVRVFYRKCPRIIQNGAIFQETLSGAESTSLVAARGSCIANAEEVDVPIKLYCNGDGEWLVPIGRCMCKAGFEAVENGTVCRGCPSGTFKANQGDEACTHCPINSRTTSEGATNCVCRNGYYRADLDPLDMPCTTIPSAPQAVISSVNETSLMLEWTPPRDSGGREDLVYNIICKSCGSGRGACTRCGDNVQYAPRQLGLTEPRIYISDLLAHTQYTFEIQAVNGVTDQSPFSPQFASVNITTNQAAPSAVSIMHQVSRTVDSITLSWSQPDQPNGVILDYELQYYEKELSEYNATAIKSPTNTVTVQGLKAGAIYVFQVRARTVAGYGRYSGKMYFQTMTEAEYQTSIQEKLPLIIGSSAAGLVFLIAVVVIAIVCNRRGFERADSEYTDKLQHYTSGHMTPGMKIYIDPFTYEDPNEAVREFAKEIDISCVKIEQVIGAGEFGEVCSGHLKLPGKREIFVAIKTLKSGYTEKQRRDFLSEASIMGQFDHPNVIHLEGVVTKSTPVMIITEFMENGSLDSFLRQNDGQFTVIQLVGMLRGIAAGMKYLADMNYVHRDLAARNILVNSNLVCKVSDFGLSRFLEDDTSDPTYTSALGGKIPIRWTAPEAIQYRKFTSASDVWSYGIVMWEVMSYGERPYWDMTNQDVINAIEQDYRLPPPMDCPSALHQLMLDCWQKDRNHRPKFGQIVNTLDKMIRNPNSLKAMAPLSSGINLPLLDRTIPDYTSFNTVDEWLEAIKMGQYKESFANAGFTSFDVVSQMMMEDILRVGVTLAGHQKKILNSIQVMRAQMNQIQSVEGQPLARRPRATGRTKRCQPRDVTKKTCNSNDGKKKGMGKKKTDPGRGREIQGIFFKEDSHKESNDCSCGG

[5] = biological target: Serine/threonine-protein kinase pim-2 (Homo sapiens, UniProt Q9P1W9); experiment: Selectivity interaction (KinomeScan (DiscoverX)) EUB0000666a PIM2; settings: at 10 µM
[6] = biological target: T2, Serine/threonine-protein kinase ULK1 (Homo sapiens) (UniProt O75385); experiment: Selectivity interaction (ActivX KiNativ screen (kinase selectivity in THP-1 cell lysates)) EUB0000639a ULK1; format: subcellular; settings: lysate, at 0.04 µM
T2 sequence (whole entry): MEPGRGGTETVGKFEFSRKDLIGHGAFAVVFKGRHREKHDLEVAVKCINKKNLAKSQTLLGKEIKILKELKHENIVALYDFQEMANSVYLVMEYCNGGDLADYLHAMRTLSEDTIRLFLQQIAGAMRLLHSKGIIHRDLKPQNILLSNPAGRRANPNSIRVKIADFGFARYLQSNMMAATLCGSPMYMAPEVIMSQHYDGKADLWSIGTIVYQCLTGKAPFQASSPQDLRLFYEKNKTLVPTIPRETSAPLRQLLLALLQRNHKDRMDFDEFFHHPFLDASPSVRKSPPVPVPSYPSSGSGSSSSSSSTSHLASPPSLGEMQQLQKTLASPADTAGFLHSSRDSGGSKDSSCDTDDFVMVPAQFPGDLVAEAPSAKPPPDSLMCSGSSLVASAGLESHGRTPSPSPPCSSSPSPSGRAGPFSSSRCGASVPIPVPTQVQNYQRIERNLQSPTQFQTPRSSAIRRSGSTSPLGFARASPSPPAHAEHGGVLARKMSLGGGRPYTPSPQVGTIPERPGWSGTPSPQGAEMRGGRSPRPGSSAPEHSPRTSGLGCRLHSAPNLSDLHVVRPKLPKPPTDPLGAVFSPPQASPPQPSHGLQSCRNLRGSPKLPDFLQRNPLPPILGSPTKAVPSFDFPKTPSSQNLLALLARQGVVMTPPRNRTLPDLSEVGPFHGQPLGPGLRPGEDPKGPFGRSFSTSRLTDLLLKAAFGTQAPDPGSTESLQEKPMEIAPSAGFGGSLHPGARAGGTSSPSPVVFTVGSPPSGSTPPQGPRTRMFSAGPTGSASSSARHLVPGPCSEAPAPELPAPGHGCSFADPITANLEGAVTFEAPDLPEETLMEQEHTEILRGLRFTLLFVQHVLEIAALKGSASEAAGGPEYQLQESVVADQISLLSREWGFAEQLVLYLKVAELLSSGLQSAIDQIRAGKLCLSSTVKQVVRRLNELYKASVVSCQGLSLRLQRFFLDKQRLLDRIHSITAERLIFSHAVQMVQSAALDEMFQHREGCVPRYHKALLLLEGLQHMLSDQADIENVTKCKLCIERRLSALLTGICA

[7] = system: ALK tyrosine kinase receptor (Homo sapiens), Q9UM73 [C1156Y]; experiment: (§1) Selectivity interaction (KinomeScan (DiscoverX)) EUB0001049a ALK; settings: at 1 µM
[8] = system: ALK tyrosine kinase receptor (Homo sapiens), Q9UM73 [L1196M]; experiment: as §1; settings: at 1 µM
[9] = biological target: ALK tyrosine kinase receptor (Homo sapiens, UniProt Q9UM73); experiment: as §1; settings: at 1 µM

Chain of Cyclin-dependent kinase 5 (Q00535 whole entry, looked up): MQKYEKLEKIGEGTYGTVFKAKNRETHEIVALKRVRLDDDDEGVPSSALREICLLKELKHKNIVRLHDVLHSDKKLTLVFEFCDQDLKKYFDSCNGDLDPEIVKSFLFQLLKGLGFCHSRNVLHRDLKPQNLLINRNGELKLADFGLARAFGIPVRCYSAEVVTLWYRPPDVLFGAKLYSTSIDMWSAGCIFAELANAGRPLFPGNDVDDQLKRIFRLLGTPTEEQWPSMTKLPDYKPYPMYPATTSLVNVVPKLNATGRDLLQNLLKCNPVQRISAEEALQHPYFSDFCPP
Chain of Histone-lysine N-methyltransferase 2A (Homo sapiens) (Q03164 1-2718 limits assumed): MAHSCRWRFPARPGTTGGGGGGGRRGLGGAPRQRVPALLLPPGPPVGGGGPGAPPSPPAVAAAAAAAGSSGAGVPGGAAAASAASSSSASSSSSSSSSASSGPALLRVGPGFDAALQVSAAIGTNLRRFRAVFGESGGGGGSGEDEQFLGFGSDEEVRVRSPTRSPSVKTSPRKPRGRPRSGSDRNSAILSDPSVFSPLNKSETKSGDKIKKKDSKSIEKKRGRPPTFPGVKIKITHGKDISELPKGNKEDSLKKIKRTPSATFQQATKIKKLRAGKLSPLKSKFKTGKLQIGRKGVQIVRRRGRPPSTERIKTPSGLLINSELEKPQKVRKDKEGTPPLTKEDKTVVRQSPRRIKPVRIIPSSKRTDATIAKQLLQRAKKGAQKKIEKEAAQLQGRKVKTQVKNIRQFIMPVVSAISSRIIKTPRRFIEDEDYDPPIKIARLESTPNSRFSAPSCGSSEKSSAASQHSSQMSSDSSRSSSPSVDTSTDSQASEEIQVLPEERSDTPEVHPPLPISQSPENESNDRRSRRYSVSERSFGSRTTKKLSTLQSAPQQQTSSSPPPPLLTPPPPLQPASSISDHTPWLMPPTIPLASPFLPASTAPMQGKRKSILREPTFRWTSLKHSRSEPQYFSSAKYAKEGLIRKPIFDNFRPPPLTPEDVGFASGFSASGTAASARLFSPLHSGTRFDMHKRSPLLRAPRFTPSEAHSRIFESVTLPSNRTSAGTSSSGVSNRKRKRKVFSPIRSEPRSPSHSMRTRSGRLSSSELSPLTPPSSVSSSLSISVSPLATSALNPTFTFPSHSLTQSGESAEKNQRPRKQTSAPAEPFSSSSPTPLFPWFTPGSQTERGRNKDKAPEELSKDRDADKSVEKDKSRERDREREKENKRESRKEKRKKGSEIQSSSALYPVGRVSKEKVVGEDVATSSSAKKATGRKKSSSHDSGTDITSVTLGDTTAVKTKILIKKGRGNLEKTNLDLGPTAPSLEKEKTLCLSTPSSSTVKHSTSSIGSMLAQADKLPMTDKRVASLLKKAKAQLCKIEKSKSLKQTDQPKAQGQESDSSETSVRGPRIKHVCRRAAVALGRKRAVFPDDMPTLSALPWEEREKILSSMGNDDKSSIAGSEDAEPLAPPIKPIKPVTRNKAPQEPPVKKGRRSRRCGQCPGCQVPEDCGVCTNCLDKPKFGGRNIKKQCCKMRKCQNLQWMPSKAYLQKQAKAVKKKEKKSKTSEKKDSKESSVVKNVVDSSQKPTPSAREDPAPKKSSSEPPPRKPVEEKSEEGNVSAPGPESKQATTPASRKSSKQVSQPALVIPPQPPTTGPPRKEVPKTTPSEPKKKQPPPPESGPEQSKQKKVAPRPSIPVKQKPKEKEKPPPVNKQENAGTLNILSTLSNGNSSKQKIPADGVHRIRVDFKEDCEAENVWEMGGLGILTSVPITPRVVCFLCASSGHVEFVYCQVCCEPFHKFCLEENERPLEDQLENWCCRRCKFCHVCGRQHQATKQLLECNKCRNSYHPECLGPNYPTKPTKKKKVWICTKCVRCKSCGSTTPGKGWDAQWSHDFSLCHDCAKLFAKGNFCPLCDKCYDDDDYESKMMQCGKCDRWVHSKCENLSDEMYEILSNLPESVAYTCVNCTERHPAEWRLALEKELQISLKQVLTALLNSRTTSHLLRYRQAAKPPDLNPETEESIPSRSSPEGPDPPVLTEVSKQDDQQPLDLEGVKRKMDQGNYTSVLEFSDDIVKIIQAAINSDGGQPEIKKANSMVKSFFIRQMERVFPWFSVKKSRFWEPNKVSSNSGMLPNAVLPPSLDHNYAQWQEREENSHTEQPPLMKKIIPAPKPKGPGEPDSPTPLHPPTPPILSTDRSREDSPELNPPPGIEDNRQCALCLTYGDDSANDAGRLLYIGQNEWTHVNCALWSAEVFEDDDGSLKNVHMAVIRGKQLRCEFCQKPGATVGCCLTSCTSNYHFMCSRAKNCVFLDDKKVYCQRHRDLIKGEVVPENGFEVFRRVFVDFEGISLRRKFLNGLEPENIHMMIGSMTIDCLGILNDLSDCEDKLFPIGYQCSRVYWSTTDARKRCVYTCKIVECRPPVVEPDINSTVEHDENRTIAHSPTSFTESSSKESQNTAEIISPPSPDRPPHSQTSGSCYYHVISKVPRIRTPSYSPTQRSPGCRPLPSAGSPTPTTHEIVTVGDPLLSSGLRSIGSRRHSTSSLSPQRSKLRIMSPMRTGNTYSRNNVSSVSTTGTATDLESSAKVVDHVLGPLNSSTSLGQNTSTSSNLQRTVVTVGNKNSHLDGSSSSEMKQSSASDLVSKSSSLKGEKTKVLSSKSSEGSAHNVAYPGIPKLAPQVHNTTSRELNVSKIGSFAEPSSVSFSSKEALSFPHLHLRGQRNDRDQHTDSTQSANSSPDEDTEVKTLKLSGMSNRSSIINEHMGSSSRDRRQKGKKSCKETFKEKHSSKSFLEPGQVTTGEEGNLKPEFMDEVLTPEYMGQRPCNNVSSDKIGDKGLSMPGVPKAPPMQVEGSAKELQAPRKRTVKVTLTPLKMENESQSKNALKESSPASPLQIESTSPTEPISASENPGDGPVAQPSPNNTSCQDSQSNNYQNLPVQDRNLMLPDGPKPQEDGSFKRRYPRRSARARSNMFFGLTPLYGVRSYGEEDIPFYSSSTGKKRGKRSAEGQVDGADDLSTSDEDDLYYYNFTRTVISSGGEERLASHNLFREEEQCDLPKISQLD
Chain of Histone-lysine N-methyltransferase 2A (Homo sapiens) (Q03164 2719-3969 limits assumed): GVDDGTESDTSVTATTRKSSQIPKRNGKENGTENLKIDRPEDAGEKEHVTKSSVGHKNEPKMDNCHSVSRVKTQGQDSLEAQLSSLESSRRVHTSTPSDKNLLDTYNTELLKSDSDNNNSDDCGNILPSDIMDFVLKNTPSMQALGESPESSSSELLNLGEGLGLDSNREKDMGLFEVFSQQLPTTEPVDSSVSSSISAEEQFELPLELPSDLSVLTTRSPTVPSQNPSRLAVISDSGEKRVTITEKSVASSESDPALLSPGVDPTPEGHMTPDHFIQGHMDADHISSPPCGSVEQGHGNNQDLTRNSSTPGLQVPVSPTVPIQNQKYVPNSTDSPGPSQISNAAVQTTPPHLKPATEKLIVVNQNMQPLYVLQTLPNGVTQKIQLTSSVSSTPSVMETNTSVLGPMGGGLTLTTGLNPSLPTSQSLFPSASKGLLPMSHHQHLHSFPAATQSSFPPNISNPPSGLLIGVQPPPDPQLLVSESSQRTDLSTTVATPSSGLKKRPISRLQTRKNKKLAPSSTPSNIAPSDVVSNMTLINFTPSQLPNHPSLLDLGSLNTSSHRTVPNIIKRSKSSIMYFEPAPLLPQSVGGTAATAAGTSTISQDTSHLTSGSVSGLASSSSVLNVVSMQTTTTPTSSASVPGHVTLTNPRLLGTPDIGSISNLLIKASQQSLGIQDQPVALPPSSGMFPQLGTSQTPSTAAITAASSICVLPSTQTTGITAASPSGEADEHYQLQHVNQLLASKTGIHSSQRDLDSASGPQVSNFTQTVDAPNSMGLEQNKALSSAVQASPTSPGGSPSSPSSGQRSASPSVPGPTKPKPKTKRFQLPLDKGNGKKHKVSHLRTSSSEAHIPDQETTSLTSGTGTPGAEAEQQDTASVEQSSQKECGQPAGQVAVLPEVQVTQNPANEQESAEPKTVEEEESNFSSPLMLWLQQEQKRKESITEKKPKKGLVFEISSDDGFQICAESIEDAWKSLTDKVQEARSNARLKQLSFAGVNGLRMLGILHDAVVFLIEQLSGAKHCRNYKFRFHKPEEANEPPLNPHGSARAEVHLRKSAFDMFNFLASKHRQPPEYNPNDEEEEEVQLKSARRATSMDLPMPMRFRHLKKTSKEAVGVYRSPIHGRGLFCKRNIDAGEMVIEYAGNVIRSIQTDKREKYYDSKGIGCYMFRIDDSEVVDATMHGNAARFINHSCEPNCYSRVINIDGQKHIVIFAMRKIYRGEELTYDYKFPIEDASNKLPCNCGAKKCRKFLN
Chain of Serine/threonine-protein kinase pim-2 (Q9P1W9 whole entry, looked up): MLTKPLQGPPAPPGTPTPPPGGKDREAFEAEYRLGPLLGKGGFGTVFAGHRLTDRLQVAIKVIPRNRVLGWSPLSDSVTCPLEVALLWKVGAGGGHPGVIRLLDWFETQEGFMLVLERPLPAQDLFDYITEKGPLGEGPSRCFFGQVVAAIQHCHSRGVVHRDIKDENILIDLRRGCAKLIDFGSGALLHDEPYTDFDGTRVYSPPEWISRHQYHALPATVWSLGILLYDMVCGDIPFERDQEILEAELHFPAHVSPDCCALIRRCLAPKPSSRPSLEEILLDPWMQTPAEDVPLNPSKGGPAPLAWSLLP
Chain of Mitogen-activated protein kinase 3 (P27361 whole entry): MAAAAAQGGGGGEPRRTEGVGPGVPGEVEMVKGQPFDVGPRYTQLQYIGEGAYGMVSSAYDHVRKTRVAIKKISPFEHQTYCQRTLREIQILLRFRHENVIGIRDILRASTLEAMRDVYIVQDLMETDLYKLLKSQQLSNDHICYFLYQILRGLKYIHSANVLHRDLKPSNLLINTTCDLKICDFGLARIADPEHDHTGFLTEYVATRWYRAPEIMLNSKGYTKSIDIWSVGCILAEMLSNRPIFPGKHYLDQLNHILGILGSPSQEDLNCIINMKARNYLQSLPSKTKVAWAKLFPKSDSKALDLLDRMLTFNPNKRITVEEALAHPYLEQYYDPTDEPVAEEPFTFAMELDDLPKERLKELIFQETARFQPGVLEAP

CCC(=O)N1CCN(c2ccc(-n3c(=O)ccc4cnc5ccc(-c6cnc7ccccc7c6)cc5c43)cc2C(F)(F)F)CC1
% of control [1]: 100%

CN(C)CCCOc1ccc(-c2cc(NCCCn3cccn3)nc(S(C)(=O)=O)n2)cc1
dTM [2]: < 2 K

C=CC(=O)Nc1ccc(C(=O)Nc2[nH]nc3c2CN(C(=O)N[C@H](CN(C)C)c2ccccc2)C3(C)C)cc1
% of engagement [3]: -1.4%

O=C(NOC[C@H](O)CO)c1ccc(F)c(F)c1Nc1ccc(I)cc1F
% of control [4]: 73% | % of control [5]: 75%

CC[C@@H]1[C@H](F)C(=O)N[C@@H]1COc1nccc2cc(C(N)=O)c(OC)cc12 [ZIMLOVISERTIB]
% of inhibition [6]: -12.7%

COc1cc(Nc2nc(C)cc(-c3cnn4nc(OC)ccc34)n2)cc(C(F)(F)F)c1
% of control [7]: 89% | % of control [8]: 100% | % of control [9]: 94%
